From patent US10758534B2 (Vertex Pharmaceuticals Incorporated, priority 2014, dated 2020)

Target: T1, F508del (Homo sapiens, UniProt P13569, DEL508-508)
T1 construct: expressed in transfected cells
Test: Protocol 1: membrane potential optical assay (FLIPR III, voltage sensing dye), identification of potentiator compounds
Format: cell-based
Conditions: Table 3, compounds of Table 1
Method in brief: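 NIH 3T3 fibroblasts stably expressing F508del were cultured at 27° C for 24 hrs for temperature correction, then treated with compounds or DMSO and loaded with a voltage-sensing redistribution dye. Forskolin added with a Cl⁻ gradient activated the channel; membrane-potential fluorescence on FLIPR III reported increased gating.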

T1 sequence (P13569 with tags, fused parts or gaps DEL508-508): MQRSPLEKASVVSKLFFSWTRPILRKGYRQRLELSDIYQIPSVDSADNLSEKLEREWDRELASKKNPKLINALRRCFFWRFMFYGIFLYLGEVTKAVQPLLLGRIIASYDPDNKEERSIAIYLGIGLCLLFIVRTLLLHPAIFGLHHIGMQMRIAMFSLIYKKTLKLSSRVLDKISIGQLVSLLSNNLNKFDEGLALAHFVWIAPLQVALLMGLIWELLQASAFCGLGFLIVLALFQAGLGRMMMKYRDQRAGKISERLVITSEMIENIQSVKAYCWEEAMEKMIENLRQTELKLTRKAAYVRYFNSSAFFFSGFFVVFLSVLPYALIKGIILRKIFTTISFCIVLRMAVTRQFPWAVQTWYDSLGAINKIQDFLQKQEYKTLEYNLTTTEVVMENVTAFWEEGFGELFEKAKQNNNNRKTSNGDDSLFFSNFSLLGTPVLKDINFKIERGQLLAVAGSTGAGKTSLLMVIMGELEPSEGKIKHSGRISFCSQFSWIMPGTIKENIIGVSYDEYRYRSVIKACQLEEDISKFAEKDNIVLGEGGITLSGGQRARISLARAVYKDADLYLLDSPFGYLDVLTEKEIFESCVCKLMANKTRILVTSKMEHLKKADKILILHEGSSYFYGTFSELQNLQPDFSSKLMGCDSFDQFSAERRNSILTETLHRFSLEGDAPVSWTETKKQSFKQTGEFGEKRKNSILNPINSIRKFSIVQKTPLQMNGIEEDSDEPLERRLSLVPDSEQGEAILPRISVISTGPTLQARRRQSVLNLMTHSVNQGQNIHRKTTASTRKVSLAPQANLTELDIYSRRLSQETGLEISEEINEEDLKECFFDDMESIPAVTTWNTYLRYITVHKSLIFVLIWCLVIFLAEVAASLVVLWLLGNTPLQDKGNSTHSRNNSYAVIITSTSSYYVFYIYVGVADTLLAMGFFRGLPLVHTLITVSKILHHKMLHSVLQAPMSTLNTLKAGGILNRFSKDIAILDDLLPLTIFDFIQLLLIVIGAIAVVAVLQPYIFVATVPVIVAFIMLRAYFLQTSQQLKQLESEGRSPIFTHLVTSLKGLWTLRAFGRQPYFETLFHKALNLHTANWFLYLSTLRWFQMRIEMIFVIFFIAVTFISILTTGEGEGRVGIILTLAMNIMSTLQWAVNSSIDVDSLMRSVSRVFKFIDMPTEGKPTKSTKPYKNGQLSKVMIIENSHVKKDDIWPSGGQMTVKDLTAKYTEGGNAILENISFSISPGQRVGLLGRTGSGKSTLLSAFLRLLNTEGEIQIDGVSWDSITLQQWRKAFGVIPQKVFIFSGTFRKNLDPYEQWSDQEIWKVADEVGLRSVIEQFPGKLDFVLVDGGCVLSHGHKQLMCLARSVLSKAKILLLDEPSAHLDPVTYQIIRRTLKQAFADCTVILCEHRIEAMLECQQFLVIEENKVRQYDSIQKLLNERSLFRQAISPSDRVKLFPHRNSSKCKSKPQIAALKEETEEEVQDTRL

Row | SMILES | EC30
1 | CCOc1cccc(-c2ccc(C(=O)NS(=O)(=O)c3ccc[nH]c3=O)c(N3C[C@@H](C)CC3(C)C)n2)c1F [Compound 1802, 6-(3-ethoxy-2-fluoro-phenyl)-N-[(2-oxo-1H-pyridin-3-yl)sulfonyl]-2-[(4S)-2,2,4-trimethylpyrrolidin-1-yl]pyridine-3-carboxamide] | +++ (“+++” means <3 uM)
2 | C[C@@H]1CN(c2nc(-c3ccc4ccccc4c3)ccc2C(=O)NS(=O)(=O)c2ccc[nH]c2=O)C(C)(C)C1 [Compound 1803, 6-(2-naphthyl)-N-[(2-oxo-1H-pyridin-3-yl)sulfonyl]-2-[(4S)-2,2,4-trimethylpyrrolidin-1-yl]pyridine-3-carboxamide] | +++ (“+++” means <3 uM)
3 | CC1CN(c2ncc(-c3cccc(OC(C)C)c3)cc2C(=O)NS(=O)(=O)c2cccc(N)n2)C(C)(C)C1 (centres unmarked) [Compound 1804, N-[(6-amino-2-pyridyl)sulfonyl]-5-(3-isopropoxyphenyl)-2-(2,2,4-trimethylpyrrolidin-1-yl)pyridine-3-carboxamide] | +++ (“+++” means <3 uM)
4 | COCC1CCCN(c2cccc(S(=O)(=O)NC(=O)c3cccnc3N3CC(C)CC3(C)C)n2)C1 (centres unmarked) [Compound 1805, N—[[6-[3-(methoxymethyl)-1-piperidyl]-2-pyridyl]sulfonyl]-2-(2,2,4-trimethylpyrrolidin-1-yl)pyridine-3-carboxamide] | ++ (“++” means between 3 uM and 10 uM)
5 | CC1CN(c2ncccc2C(=O)NS(=O)(=O)c2cccc(Oc3ccc(Cl)cc3Cl)n2)C(C)(C)C1 (centres unmarked) [Compound 1806, N—[[6-(2,4-dichlorophenoxy)-2-pyridyl]sulfnyl]-2-(2,2,4-trimethylpyrrolidin-1-yl)pyridine-3-carboxamide] | +++ (“+++” means <3 uM)
6 | C[C@@H]1CN(c2nc(-c3ccc(F)cc3)ccc2C(=O)NS(=O)(=O)c2ccc[nH]c2=O)C(C)(C)C1 [Compound 1807, 6-(4-fluorophenyl)-N-[(2-oxo-1H-pyridin-3-yl)sulfonyl]-2-[(4S)-2,2,4-trimethylpyrrolidin-1-yl]pyridine-3-carboxamide] | +++ (“+++” means <3 uM)
7 | CCOc1cc(F)ccc1-c1ccc(C(=O)NS(=O)(=O)c2cccnc2N)c(N2C[C@@H](C)CC2(C)C)n1 [Compound 1808, N-[(2-amino-3-pyridyl)sulfonyl]-6-(2-ethoxy-4-fluoro-phenyl)-2-[(4S)-2,2,4-trimethylpyrrolidin-1-yl]pyridine-3-carboxamide] | +++ (“+++” means <3 uM)
8 | CC1CN(c2ncc(-c3ccc(C(C)C)cc3)cc2C(=O)NS(=O)(=O)c2cccc(N)n2)C(C)(C)C1 (centres unmarked) [Compound 1809] | +++ (“+++” means <3 uM)
9 | CC1CN(c2nc(OC(C)C(C)C)c(F)cc2C(=O)NS(=O)(=O)c2cccc(N)n2)C(C)(C)C1 (centres unmarked) [Compound 1810, N-[(6-amino-2-pyridyl)sulfonyl]-6-(1,2-dimethylpropoxy)-5-fluoro-2-(2,2,4-trimethylpyrrolidin-1-yl)pyridine-3-carboxamide] | +++ (“+++” means <3 uM)
10 | Cc1ccc(-c2ccc(C(=O)NS(=O)(=O)c3ccc[nH]c3=O)c(N3C[C@@H](C)CC3(C)C)n2)c2ccccc12 [Compound 1811, 6-(4-methyl-1-naphthyl)-N-[(2-oxo-1H-pyridin-3-yl)sulfonyl]-2-[(4S)-2,2,4-trimethylpyrrolidin-1-yl]pyridine-3-carboxamide] | +++ (“+++” means <3 uM)
11 | CCOCCOCCOc1cc(-c2ccc(C(=O)NS(=O)(=O)c3cccc(N)n3)c(N3C[C@@H](C)CC3(C)C)n2)cc(C)n1 [Compound 1812, N-[(6-amino-2-pyridyl)sulfonyl]-6-[2-[2-(2-ethoxyethoxy)ethoxy]-6-methyl-4-pyridyl]-2-[(4S)-2,2,4-trimethylpyrrolidin-1-yl]pyridine-3-carboxamide] | ++ (“++” means between 3 uM and 10 uM)
12 | CC1CN(c2ncccc2C(=O)NS(=O)(=O)c2cccc(Oc3ccc(F)cc3)n2)C(C)(C)C1 (centres unmarked) [Compound 1813, N—[[6-(4-fluorophenoxy)-2-pyridyl]sulfonyl]-2-(2,2,4-trimethylpyrrolidin-1-yl)pyridine-3-carboxamide] | +++ (“+++” means <3 uM)
13 | CC1CN(c2ncccc2C(=O)NS(=O)(=O)c2cccc(NCc3ccc4c(c3)OCO4)n2)C(C)(C)C1 (centres unmarked) [Compound 1814, N—[[6-(1,3-benzodioxol-5-ylmethylamino)-2-pyridyl]sulfonyl]-2-(2,2,4-trimethylpyrrolidin-1-yl)pyridine-3-carboxamide] | +++ (“+++” means <3 uM)
14 | CC1CN(c2ncc(-c3cc(OC(C)C)cc(C(F)(F)F)c3)cc2C(=O)NS(=O)(=O)c2cccc(N)n2)C(C)(C)C1 (centres unmarked) [Compound 1815, N-[(6-amino-2-pyridyl)sulfonyl]-5-[3-isopropoxy-5-(trifluoromethyl)phenyl]-2-(2,2,4-trimethylpyrrolidin-1-yl)pyridine-3-carboxamide] | +++ (“+++” means <3 uM)
15 | CC1CN(c2ncccc2C(=O)NS(=O)(=O)c2cccc(N3CCN(c4ccccn4)CC3)n2)C(C)(C)C1 (centres unmarked) [Compound 1816, N—[[6-[4-(2-pyridyl)piperazin-1-yl]-2-pyridyl]sulfonyl]-2-(2,2,4-trimethylpyrrolidin-1-yl)pyridine-3-carboxamide] | +++ (“+++” means <3 uM)
16 | COc1ccc(-c2ccc(C(=O)NS(=O)(=O)c3cccnc3N)c(N3C[C@@H](C)CC3(C)C)n2)c(F)c1 [Compound 1818, N-[(2-amino-3-pyridyl)sulfonyl]-6-(2-fluoro-4-methoxy-phenyl)-2-[(4S)-2,2,4-trimethylpyrrolidin-1-yl]pyridine-3-carboxamide] | +++ (“+++” means <3 uM)
17 | Cc1cc(F)cc(-c2ccc(C(=O)NS(=O)(=O)N3CC[C@H](N)C3)c(N3C[C@@H](C)CC3(C)C)n2)c1 [Compound 1819, N-[(3S)-3-aminopyrrolidin-1-yl]sulfonyl-6-(3-fluoro-5-methyl-phenyl)-2-[(4S)-2,2,4-trimethylpyrrolidin-1-yl]pyridine-3-carboxamide] | ++ (“++” means between 3 uM and 10 uM)
18 | C[C@@H]1CN(c2nc(-c3cccc(O)c3)ccc2C(=O)NS(=O)(=O)c2cccnc2N)C(C)(C)C1 [Compound 1820, N-[(2-amino-3-pyridyl)sulfonyl]-6-(3-hydroxyphenyl)-2-[(4S)-2,2,4-trimethylpyrrolidin-1-yl]pyridine-3-carboxamide] | ++ (“++” means between 3 uM and 10 uM)
19 | CC(C)COc1cc(F)cc(-c2ccc(C(=O)NS(=O)(=O)c3cccc(N)n3)c(N3CC4C5CCC(C5)C43)n2)c1 (centres unmarked) [Compound 1821, N-[(6-amino-2-pyridyl)sulfonyl]-6-(3-fluoro-5-isobutoxy-phenyl)-2-BLAHyl-pyridine-3-carboxamide] | +++ (“+++” means <3 uM)
20 | CCOc1cccc(-c2ccc(C(=O)NS(=O)(=O)c3cccnc3N)c(N3C[C@@H](C)CC3(C)C)n2)c1 [Compound 1822, N-[(2-amino-3-pyridyl)sulfonyl]-6-(3-ethoxyphenyl)-2-[(4S)-2,2,4-trimethylpyrrolidin-1-yl]pyridine-3-carboxamide] | +++ (“+++” means <3 uM)
21 | CC1CN(c2ncccc2C(=O)NS(=O)(=O)c2cccc(Nc3ccc4[nH]ccc4c3)n2)C(C)(C)C1 (centres unmarked) [Compound 1823, N—[[6-(1H-indol-5-ylamino)-2-pyridyl]sulfonyl]-2-(2,2,4-trimethylpyrrolidin-1-yl)pyridine-3-carboxamide] | +++ (“+++” means <3 uM)
22 | C[C@@H]1CN(c2nc(-c3cccc(C#N)c3)ccc2C(=O)NS(=O)(=O)c2cccnc2N)C(C)(C)C1 [Compound 1824, N-[(2-amino-3-pyridyl)sulfonyl]-6-(3-cyanophenyl)-2-[(4S)-2,2,4-trimethylpyrrolidin-1-yl]pyridine-3-carboxamide] | +++ (“+++” means <3 uM)
23 | COc1cc(OC)cc(-c2ccc(C(=O)NS(=O)(=O)c3cccnc3N)c(N3C[C@@H](C)CC3(C)C)n2)c1 [Compound 1825, N-[(2-amino-3-pyridyl)sulfonyl]-6-(3,5-dimethoxyphenyl)-2-[(4S)-2,2,4-trimethylpyrrolidin-1-yl]pyridine-3-carboxamide] | +++ (“+++” means <3 uM)
24 | CC1CN(c2ncccc2C(=O)NS(=O)(=O)c2cccc(Nc3cccc4cccnc34)n2)C(C)(C)C1 (centres unmarked) [Compound 1826, N—[[6-(8-quinolylamino)-2-pyridyl]sulfonyl]-2-(2,2,4-trimethylpyrrolidin-1-yl)pyridine-3-carboxamide] | +++ (“+++” means <3 uM)
25 | CC1CN(c2ncccc2C(=O)NS(=O)(=O)c2cccc(N(C)Cc3ccccc3)n2)C(C)(C)C1 (centres unmarked) [Compound 1827, N—[[6-[benzyl(methyl)amino]-2-pyridyl]sulfonyl]-2-(2,2,4-trimethylpyrrolidin-1-yl)pyridine-3-carboxamide] | +++ (“+++” means <3 uM)
26 | CCOc1cccc(Oc2cccc(S(=O)(=O)NC(=O)c3cccnc3N3CC(C)CC3(C)C)n2)c1 (centres unmarked) [Compound 1828, N—[[6-(3-ethoxyphenoxy)-2-pyridyl]sulfonyl]-2-(2,2,4-trimethylpyrrolidin-1-yl)pyridine-3-carboxamide] | +++ (“+++” means <3 uM)
27 | Cc1cccc(-c2ccc(C(=O)NS(=O)(=O)c3cccnc3N)c(N3C[C@@H](C)CC3(C)C)n2)c1 [Compound 1829, N-[(2-amino-3-pyridyl)sulfonyl]-6-(m-tolyl)-2-[(4S)-2,2,4-trimethylpyrrolidin-1-yl]pyridine-3-carboxamide] | +++ (“+++” means <3 uM)
28 | COc1ccc(F)cc1-c1ccc(C(=O)NS(=O)(=O)c2ccc[nH]c2=O)c(N2C[C@@H](C)CC2(C)C)n1 [Compound 1830, 6-(5-fluoro-2-methoxy-phenyl)-N-[(2-oxo-1H-pyridin-3-yl)sulfonyl]-2-[(4S)-2,2,4-trimethylpyrrolidin-1-yl]pyridine-3-carboxamide] | +++ (“+++” means <3 uM)
29 | CC1CN(c2ncccc2C(=O)NS(=O)(=O)c2cccc(Oc3ccc(F)c(Cl)c3)n2)C(C)(C)C1 (centres unmarked) [Compound 1831, N—[[6-(3-chloro-4-fluoro-phenoxy)-2-pyridyl]sulfonyl]-2-(2,2,4-trimethylpyrrolidin-1-yl)pyridine-3-carboxamide] | +++ (“+++” means <3 uM)
